pIC50: −log10 of the molar value.

One assay deals with IDH1 R132H (Homo sapiens (Human), UniProt O75874, R132H). In words: Assays for IDH1 R132H Inhibitors (NADPH/aKG, resazurin detection). Format: biochemical.
Chain of IDH1 R132H (O75874 whole entry R132H): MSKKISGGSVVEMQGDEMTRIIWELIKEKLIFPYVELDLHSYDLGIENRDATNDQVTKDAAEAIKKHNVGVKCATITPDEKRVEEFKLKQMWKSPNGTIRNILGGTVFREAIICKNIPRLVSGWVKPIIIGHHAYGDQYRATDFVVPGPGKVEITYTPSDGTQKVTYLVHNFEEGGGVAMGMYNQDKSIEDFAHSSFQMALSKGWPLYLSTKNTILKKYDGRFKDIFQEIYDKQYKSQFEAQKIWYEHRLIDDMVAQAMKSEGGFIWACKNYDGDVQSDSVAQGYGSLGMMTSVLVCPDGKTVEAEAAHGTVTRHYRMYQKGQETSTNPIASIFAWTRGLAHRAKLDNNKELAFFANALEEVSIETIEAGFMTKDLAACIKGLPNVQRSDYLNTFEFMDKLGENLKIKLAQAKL
Settings: not given
In outline: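 Mutant enzyme in 150 mM NaCl, 10 mM MgCl2, 20 mM Tris pH 7.5, 0.03% BSA; compound in DMSO added to substrate mix of 8 uM NADPH and 2 mM aKG. Reaction ran 50 min at room temperature, then resazurin detection mix (30 μM) added for 5 min at room temperature.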
In general terms: The colour change of resazurin is a common sign of viable cells or microbes.
For the compound `CC1(C)Cc2c(C#N)c(N3CCN(C(=O)c4ccco4)CC3)nc(C3CC3)c2CO1` [Compound 142, 8-cyclopropyl-6-(4-(furan-2-carbonyl)piperazin-1-yl)-3,3-dimethyl-3,4-dihydro-1H-pyrano[3,4-c]pyridine-5-carbonitrile], the pIC50 was 5.00 to 6.00.

The same assay, now with this note: IDH1 R132H enzyme, Table 2; read-out: IDHR132H Activity.
For the compound `CC(C)c1nc(N2CCN(C(=O)c3ccco3)C(c3ccccc3)C2)c(C#N)c2c1COC(C)(C)C2` (centres unmarked) [Compound 154, 6-(4-(furan-2-carbonyl)-3-phenylpiperazin-1-yl)-8-isopropyl-3,3-dimethyl-3,4-dihydro-1H-pyrano[3,4-c]pyridine-5-carbonitrile], the pIC50 is 6.00 to 6.30.

In the case of `C#CCNC(=O)N1CCN(c2nc(C3CCCCC3)c3c(c2C#N)CCOC3)C[C@H]1C` [Compound 361, (R)-4-(5-cyano-8-cyclohexyl-3,4-dihydro-1H-pyrano[3,4-c]pyridin-6-yl)-2-methyl-N-(prop-2-ynyl)piperazine-1-carboxamide], the pIC50 is 5.00 to 6.00.

Consider `Cc1nc2ccccn2c1C(=O)N1CCN(c2nc(C3CCCCC3)c3c(c2C#N)CCOC3)C[C@H]1C` [Compound 190, (R)-8-cyclohexyl-6-(3-methyl-4-(2-methylimidazo[1,2-a]pyridine-3-carbonyl)piperazin-1-yl)-3,4-dihydro-1H-pyrano[3,4-c]pyridine-5-carbonitrile], for which the pIC50 was 5.00 to 6.00.

Take `CC(C)c1nc(N2CCN(C(=O)c3cnc4ccccn34)[C@H](C)C2)c(C#N)c2c1COC(C)(C)C2` [Compound 222, (R)-6-(4-(imidazo[1,2-a]pyridine-3-carbonyl)-3-methylpiperazin-1-yl)-8-isopropyl-3,3-dimethyl-3,4-dihydro-1H-pyrano[3,4-c]pyridine-5-carbonitrile]: the pIC50 is 5.00 to 6.00.

Regarding `C[C@@H]1CN(c2nc(C3CCCCC3)c3c(c2C#N)CCOC3)CCN1C(=O)Cc1cccnc1` [Compound 260, (R)-8-cyclohexyl-6-(3-methyl-4-(2-(pyridin-3-yl)acetyl)piperazin-1-yl)-3,4-dihydro-1H-pyrano[3,4-c]pyridine-5-carbonitrile], the pIC50 was 5.00 to 6.00.

Consider `Cc1cc(C(=O)N2CCN(c3nc(C(C)C)c4c(c3C#N)CC(C)(C)OC4)C[C@H]2C)c(C)o1` [Compound 196, (R)-6-(4-(2,5-dimethylfuran-3-carbonyl)-3-methylpiperazin-1-yl)-8-isopropyl-3,3-dimethyl-3,4-dihydro-1H-pyrano[3,4-c]pyridine-5-carbonitrile], for which the pIC50 was 5.00 to 6.00.

Take `CC(C)c1nc(N2CCN(C(=O)c3cocn3)[C@H](C(C)C)C2)c(C#N)c2c1COC(C)(C)C2` [Compound 212, (R)-8-isopropyl-6-(3-isopropyl-4-(oxazole-4-carbonyl)piperazin-1-yl)-3,3-dimethyl-3,4-dihydro-1H-pyrano[3,4-c]pyridine-5-carbonitrile]: the pIC50 is 6.00 to 6.30.

Turning to `CC(C)[C@@H]1CN(c2nc(C3CC3)c3c(c2C#N)CC(C)(C)OC3)CCN1S(=O)(=O)c1ccc(Cl)s1` [Compound 285, (R)-6-(4-(5-chlorothiophen-2-ylsulfonyl)-3-isopropylpiperazin-1-yl)-8-cyclopropyl-3,3-dimethyl-3,4-dihydro-1H-pyrano[3,4-c]pyridine-5-carbonitrile], the pIC50 is 5.00 to 6.00.

With `CC(C)[C@@H]1CN(c2nc(C3CC3)c3c(c2C#N)CC(C)(C)OC3)CCN1C(=O)OC(C)(C)C` [Compound 306, (R)-tert-butyl 4-(5-cyano-8-cyclopropyl-3,3-dimethyl-3,4-dihydro-1H-pyrano[3,4-c]pyridin-6-yl)-2-isopropylpiperazine-1-carboxylate], the pIC50 was 5.00 to 6.00.

With `CC[C@@H]1CN(c2nc(C3CC3)c3c(c2C#N)CC(C)(C)OC3)CCN1C(=O)Cc1cccs1` [Compound 236], the pIC50 was above 6.30.

For the compound `Cc1oncc1C(=O)N1CCN(c2nc(C(C)C)c3c(c2C#N)CC(C)(C)OC3)C[C@H]1C` [Compound 217, (R)-8-isopropyl-3,3-dimethyl-6-(3-methyl-4-(5-methylisoxazole-4-carbonyl)piperazin-1-yl)-3,4-dihydro-1H-pyrano[3,4-c]pyridine-5-carbonitrile], the pIC50 was 6.00 to 6.30.

In the case of `CC(C)c1nc(N2CC(C)N(C(=O)NC3CCCCC3)C(C)C2)c(C#N)c2c1COCC2` (centres unmarked) [Compound 108, 4-(5-cyano-8-isopropyl-3,4-dihydro-1H-pyrano[3,4-c]pyridin-6-yl)-N-cyclohexyl-2,6-dimethylpiperazine-1-carboxamide], the pIC50 was 5.00 to 6.00.

Turning to `CC(C)c1nc(N2CCN(C(=O)c3ccco3)C(C)C2)c(C#N)c2c1COC(C)(C)C2` (centres unmarked) [Compound 137, 6-(4-(furan-2-carbonyl)-3-methylpiperazin-1-yl)-8-isopropyl-3,3-dimethyl-3,4-dihydro-1H-pyrano[3,4-c]pyridine-5-carbonitrile], the pIC50 is 5.00 to 6.00.

Turning to `CC[C@@H]1CN(c2nc(C(C)C)c3c(c2C#N)CC(C)(C)OC3)CCN1C(=O)c1ccoc1` [Compound 205, (R)-6-(3-ethyl-4-(furan-3-carbonyl)piperazin-1-yl)-8-isopropyl-3,3-dimethyl-3,4-dihydro-1H-pyrano[3,4-c]pyridine-5-carbonitrile], the pIC50 is above 6.30.

For `C[C@@H]1CN(c2nc(C3CCCCC3)c3c(c2C#N)CCOC3)CCN1C(=O)C1CC1` [Compound 375, (R)-8-cyclohexyl-6-(4-(cyclopropanecarbonyl)-3-methylpiperazin-1-yl)-3,4-dihydro-1H-pyrano[3,4-c]pyridine-5-carbonitrile], the pIC50 is 5.00 to 6.00.

On to `CC(C)[C@@H]1CN(c2nc(C3CC3)c3c(c2C#N)CC(C)(C)OC3)CCN1C(=O)CC1CC1` [Compound 382, (R)-8-cyclopropyl-6-(4-(2-cyclopropylacetyl)-3-isopropylpiperazin-1-yl)-3,3-dimethyl-3,4-dihydro-1H-pyrano[3,4-c]pyridine-5-carbonitrile], for which the pIC50 was above 6.30.

In the case of `CC(C)[C@@H]1CN(c2nc(C3CC3)c3c(c2C#N)CC(C)(C)OC3)CCN1C(=O)CC(=O)O` [Compound 418, (R)-3-(4-(5-cyano-8-cyclopropyl-3,3-dimethyl-3,4-dihydro-1H-pyrano[3,4-c]pyridin-6-yl)-2-isopropylpiperazin-1-yl)-3-oxopropanoic acid], the pIC50 is 5.00 to 6.00.

For `CC1CN(c2nc(C3CCCC3)c3c(c2C#N)CC(C)(C)OC3)CCN1C(=O)c1ccco1` (centres unmarked) [Compound 147, 8-cyclopentyl-6-(4-(furan-2-carbonyl)-3-methylpiperazin-1-yl)-3,3-dimethyl-3,4-dihydro-1H-pyrano[3,4-c]pyridine-5-carbonitrile], the pIC50 is 5.00 to 6.00.

As for `Cc1ncoc1C(=O)N1CCN(c2nc(C(C)C)c3c(c2C#N)CC(C)(C)OC3)C[C@H]1C(C)C` [Compound 213, (R)-8-isopropyl-6-(3-isopropyl-4-(4-methyloxazole-5-carbonyl)piperazin-1-yl)-3,3-dimethyl-3,4-dihydro-1H-pyrano[3,4-c]pyridine-5-carbonitrile], the pIC50 was 5.00 to 6.00.

Regarding `C[C@@H]1CN(c2nc(C3CCCCC3)c3c(c2C#N)CC(C)(C)OC3)CCN1C(=O)c1ccco1` [Compound 150, (R)-8-cyclohexyl-6-(4-(furan-2-carbonyl)-3-methylpiperazin-1-yl)-3,3-dimethyl-3,4-dihydro-1H-pyrano[3,4-c]pyridine-5-carbonitrile], the pIC50 is 5.00 to 6.00.

With `COc1ccc(OC(=O)N2CCN(c3nc(C4CC4)c4c(c3C#N)CC(C)(C)OC4)C[C@H]2C(C)C)cc1` [Compound 337, (R)-4-methoxyphenyl 4-(5-cyano-8-cyclopropyl-3,3-dimethyl-3,4-dihydro-1H-pyrano[3,4-c]pyridine-6-yl)-2-isopropylpiperazine-1-carboxylate], the pIC50 is 5.00 to 6.00.

For `N#Cc1c(N2CCN(C(=O)C3CC3)CC2)nc(C2CCCCC2)c2c1CCOC2` [Compound 141, 8-cyclohexyl-6-(4-(cyclopropanecarbonyl)piperazin-1-yl)-3,4-dihydro-1H-pyrano[3,4-c]pyridine-5-carbonitrile], the pIC50 is 5.00 to 6.00.

For the compound `COC(=O)CN1CCN(c2nc(C3CCCCC3)c3c(c2C#N)CCOC3)C[C@H]1C` [Compound 342, (R)-methyl 2-(4-(5-cyano-8-cyclohexyl-3,4-dihydro-1H-pyrano[3,4-c]pyridin-6-yl)-2-methylpiperazin-1-yl)acetate], the pIC50 is 5.00 to 6.00.

Consider `CCC(=O)N1CCN(c2nc(C3CCCCC3)c3c(c2C#N)CCOC3)C[C@H]1C` [Compound 363, (R)-8-cyclohexyl-6-(3-methyl-4-propionylpiperazin-1-yl)-3,4-dihydro-1H-pyrano[3,4-c]pyridine-5-carbonitrile], for which the pIC50 is 5.00 to 6.00.

For `CCOC(=O)C1CN(c2nc(C3CCCCC3)c3c(c2C#N)CCOC3)CCN1C(=O)c1ccco1` (centres unmarked) [Compound 314, ethyl 4-(5-cyano-8-cyclohexyl-3,4-dihydro-1H-pyrano[3,4-c]pyridin-6-yl)-1-(furan-2-carbonyl) piperazine-2-carboxylate], the pIC50 was 5.00 to 6.00.

As to `CC1CN(c2nc(-c3cccc(F)c3)c3c(c2C#N)CC(C)(C)OC3)CCN1C(=O)c1ccoc1` (centres unmarked) [Compound 130, 8-(3-fluorophenyl)-6-(4-(furan-3-carbonyl)-3-methylpiperazin-1-yl)-3,3-dimethyl-3,4-dihydro-1H-pyrano[3,4-c]pyridine-5-carbonitrile], the pIC50 was 5.00 to 6.00.

Still in this assay, the particulars now being: IDH1 R132H enzyme, Table 3; read-out: R132H IC50.
Take `CC(C)[C@@H]1CN(c2nc(C3CC3)c3c(c2C#N)CC(C)(C)OC3)CCN1C(=O)CCc1ccco1` [Compound 447, (R)-8-cyclopropyl-6-(4-(3-(furan-2-yl)propanoyl)-3-isopropylpiperazin-1-yl)-3,3-dimethyl-3,4-dihydro-1H-pyrano[3,4-c]pyridine-5-carbonitrile]: the pIC50 was 6.00 to 6.30.

In the case of `CC(C)[C@@H]1CN(c2nc(C3CC3)c3c(c2C#N)CC(C)(C)OC3)CCN1C(=O)CCc1nnco1` [Compound 448, (R)-6-(4-(3-(1,3,4-oxadiazol-2-yl)propanoyl)-3-isopropylpiperazin-1-yl)-8-cyclopropyl-3,3-dimethyl-3,4-dihydro-1H-pyrano[3,4-c]pyridine-5-carbonitrile], the pIC50 is 6.00 to 6.30.

Source of the values: patent publication US9662327B2 (AGIOS PHARMACEUTICALS, INC, priority 2011, dated 2017).
